# In patent publication US20230045685A1, “COPPER CLUSTERS, COMPOSITION, AND METHOD FOR TREATMENT OF LIVER CIRRHOSIS” (Wuhan Vast Conduct Science Foundation CO., LTD., priority 2020, published 2023):
# Tests used:
# [1] = test system: CCl4-induced liver cirrhosis in a mouse model; experiment: HE staining pathological examination of liver tissue in CCl4-induced liver cirrhosis model mice; type: in vivo, C57BL/6N mice; conditions: sorafenib 25 mg/kg intragastrically, 20 days, vs model control group
# Excerpt: (§1) 70 SPF male C57BL/6N mice, 6-8 weeks old and 16-20 g body weight, were purchased from Beijing Huafukang Experimental Animal Technology Co., Ltd. (production license number: SOCK (Jing) 2019-0008). According to body weight, they were randomly divided into 7 groups (n=10): blank control group, model group, positive control group, Cu-1 low dose group, Cu-1 high dose group, Cu-2 low dose group, Cu-2 high dose group.
# (§2) Except for the blank control group, liver cirrhosis model of mice in other groups was prepared by the treatment of carbon tetrachloride (CCl4)-induction method. The modeling protocoal was as follows: (1) Each mouse was intraperitoneally injected with 10% CCl4 (diluted with olive oil) at 7 μL/g body weight, twice a week for a total of 8 weeks; mice of the blank control group were injected intraperitoneally with the same amount of olive oil solvent. (2) from the 6th week, two mice were selected and killed 48 hours after the last injection every week. The appearance of the liver was observed. After the appearance was in line with the characteristics of cirrhosis (the 8th week), the liver tissue was fixed with formalin. HE staining and Masson staining were used to evaluate the model of cirrhosis. […]
# [2] = test system: CCl4-induced liver cirrhosis in a mouse model; experiment: Serum biochemical testing (ALT, AST, TBil, MAO, ALB) in CCl4-induced liver cirrhosis model mice; type: in vivo, C57BL/6N mice; conditions: sorafenib 25 mg/kg intragastrically, once a day for 20 days
# Excerpt: as §1, §2
smiles,measurement,setting,value
CNC(=O)c1cc(Oc2ccc(NC(=O)Nc3ccc(Cl)c(C(F)(F)F)c3)cc2)ccn1 [Sorafenib],HE staining: liver pathology,[1],significant reduction of liver damages
same,serum ALT activity,"[2]; model group 188.5±4.9, P<0.01",42.8±5.4 U/L
same,serum AST activity,"[2]; model group 192.0±11.3, P<0.05",165.5±11.6 U/L
